Laboratory results from patent US20250051338A1, “TYK2 DEGRADERS AND USES THEREOF” (Kymera Therapeutics, Inc., priority 2021, published 2025).

How the values were obtained:
Type in all cases: cell-based
[1] = biological target: T1, TYK2 (Homo sapiens, UniProt P29597); assay: TYK2 degradation MSD assay in OCI-LY10 cells; set-up: endogenous in cells; host or cells: EBV-B cells; conditions: 4 to 24 hours incubation, read-out: TYK2 MSD DC50 rating in OCI-LY10
How it was run: (§1)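 DC50 values reflect dose-dependent decrease of TYK2 protein, read by MSD after cells were exposed to compound (top 1 to 10 μM, 1:3, 9 doses) for 4 to 24 hours at 37° C.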

[2] = biological target: T1, TYK2; assay: TYK2 degradation MSD assay in EBV-B cells; set-up: endogenous in cells; host or cells: EBV-B cells; conditions: 4 to 24 hours incubation, read-out: TYK2 MSD DC50 rating in EBV-B
How it was run: as §1

[3] = biological target: T1, TYK2; assay: TYK2 degradation MSD assay in human PBMC cells; set-up: endogenous in cells; host or cells: human PBMC; conditions: 4 to 24 hours incubation, read-out: TYK2 MSD DC50 rating in human PBMC
How it was run: as §1

T1 sequence (P29597 whole entry): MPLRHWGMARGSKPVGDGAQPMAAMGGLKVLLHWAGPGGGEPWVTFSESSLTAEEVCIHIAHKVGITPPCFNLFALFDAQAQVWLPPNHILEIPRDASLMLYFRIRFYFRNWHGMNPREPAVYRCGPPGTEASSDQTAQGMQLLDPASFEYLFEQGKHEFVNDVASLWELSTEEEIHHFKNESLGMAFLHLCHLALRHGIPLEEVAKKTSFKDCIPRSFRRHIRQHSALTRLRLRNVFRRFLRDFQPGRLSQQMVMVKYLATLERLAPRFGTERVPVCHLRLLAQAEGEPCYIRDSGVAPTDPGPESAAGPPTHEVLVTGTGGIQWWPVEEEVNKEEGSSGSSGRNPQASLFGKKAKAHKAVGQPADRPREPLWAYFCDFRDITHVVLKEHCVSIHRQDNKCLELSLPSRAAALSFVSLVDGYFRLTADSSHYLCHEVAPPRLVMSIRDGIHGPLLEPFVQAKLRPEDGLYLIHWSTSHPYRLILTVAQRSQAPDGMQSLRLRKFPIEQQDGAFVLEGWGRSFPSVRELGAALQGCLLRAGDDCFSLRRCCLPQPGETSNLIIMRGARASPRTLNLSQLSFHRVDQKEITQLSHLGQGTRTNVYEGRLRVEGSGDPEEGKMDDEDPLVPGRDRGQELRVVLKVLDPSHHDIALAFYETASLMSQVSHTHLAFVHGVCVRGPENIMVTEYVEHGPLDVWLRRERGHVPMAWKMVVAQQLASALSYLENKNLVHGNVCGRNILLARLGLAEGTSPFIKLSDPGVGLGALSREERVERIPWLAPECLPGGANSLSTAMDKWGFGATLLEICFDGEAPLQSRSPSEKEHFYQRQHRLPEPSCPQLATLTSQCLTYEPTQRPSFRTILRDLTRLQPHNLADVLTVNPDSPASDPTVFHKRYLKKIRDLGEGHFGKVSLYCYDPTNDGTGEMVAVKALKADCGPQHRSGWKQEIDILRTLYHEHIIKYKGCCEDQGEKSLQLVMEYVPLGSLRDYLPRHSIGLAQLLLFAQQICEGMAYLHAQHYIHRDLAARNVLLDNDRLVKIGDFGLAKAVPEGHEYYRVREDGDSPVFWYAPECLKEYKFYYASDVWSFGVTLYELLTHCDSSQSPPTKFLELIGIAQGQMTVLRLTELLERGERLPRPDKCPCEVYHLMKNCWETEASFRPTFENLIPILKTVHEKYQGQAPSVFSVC

SMILES	DC50 [1] [nM]	DC50 [2] [nM]	DC50 [3] [nM]
CNC(=O)c1cnc(Nc2ccc(CN3CCC(N(C)c4cccc5c4n(C)c(=O)n5C4CCC(=O)NC4=O)C3)cn2)cc1Nc1cccc(-c2ncc(F)cn2)c1OC (stereo not drawn) [Example K705]	> 100	< 1	> 100
CNC(=O)c1cnc(Nc2ccc(C(=O)NCCCCc3ccc4c(c3)n(C)c(=O)n4C3CCC(=O)NC3=O)cn2)cc1Nc1ccccc1OC (stereo not drawn) [Example K706]	> 100	> 100	> 100
CNC(=O)c1cnc(Nc2ccc(C3CN(Cc4ccc5c(c4)n(C)c(=O)n5C4CCC(=O)NC4=O)C3)cn2)cc1Nc1cccc(-c2ncc(F)cn2)c1OC (stereo not drawn) [Example K707]	> 100	1 to 10	> 100
CNC(=O)c1cnc(Nc2ccc(CN3CCC(OCC#Cc4ccc5c(c4)n(C)c(=O)n5C4CCC(=O)NC4=O)CC3)cn2)cc1Nc1cccc(-c2ncc(F)cn2)c1OC (stereo not drawn) [Example K708]	> 100	< 1	> 100
CCNC(=O)c1cnc(Nc2cc(CN3CCN(c4ccc5c(c4)n(C)c(=O)n5C4CCC(=O)NC4=O)CC3)ccn2)cc1Nc1cccc(-c2ncc(F)cn2)c1OC (stereo not drawn) [Example K709]	> 100	1 to 10	> 100
[2H]C([2H])([2H])NC(=O)c1nnc(Nc2ccc(C(=O)N(C)C3CCN(c4cccc5c4n(C)c(=O)n5C4CCC(=O)NC4=O)CC3)cn2)cc1Nc1cccc(F)c1OC (stereo not drawn) [Example K710]	> 100	< 1	> 100
[2H]C([2H])([2H])NC(=O)c1nnc(Nc2ccc(CN3CCN(c4ccc5c(c4)n(C)c(=O)n5C4CCC(=O)NC4=O)CC3)cn2)cc1Nc1cccc(F)c1OC (stereo not drawn) [Example K711]	> 100	> 100	> 100
[2H]C([2H])([2H])NC(=O)c1nnc(Nc2ccc(CN(C)CC3CCN(c4ccc5c(c4)n(C)c(=O)n5C4CCC(=O)NC4=O)CC3)cn2)cc1Nc1cccc(F)c1OC (stereo not drawn) [Example K712]	> 100	< 1	> 100

More lines, now with the values ahead:

DC50 [1] [nM]	DC50 [2] [nM]	DC50 [3] [nM]	SMILES
1 to 10	> 100	> 100	CNc1cc(Nc2cccnc2OCC2CCN(C3CCN(c4ccc5c(c4)n(C)c(=O)n5C4CCC(=O)NC4=O)CC3)CC2)nn2c(C(=O)NC3CC3F)cnc12 (stereo not drawn) [Example K659]
< 1	> 100	> 100	CNc1cc(Nc2cccc(-c3ccc(CN4CCC(N5CCN(c6ccc7c(c6)n(C)c(=O)n7C6CCC(=O)NC6=O)CC5)C(F)(F)C4)cn3)c2OC)nn2c(C(=O)NC3CC3F)cnc12 (stereo not drawn) [Example K660]
< 1	> 100	< 1	CNC(=O)c1cnc(Nc2ccc(CN3CCC(N(C)c4cccc5c4n(C)c(=O)n5C4CCC(=O)NC4=O)CC3)cn2)cc1Nc1cccc(-c2ncc(F)cn2)c1OC (stereo not drawn) [Example K700]
< 1	> 100	< 1	CNC(=O)c1cnc(Nc2ccc(CN3CCN(CC#Cc4ccc5c(c4)n(C)c(=O)n5C4CCC(=O)NC4=O)CC3)cn2)cc1Nc1cccc(-c2ncc(F)cn2)c1OC (stereo not drawn) [Example K701]
> 100	1 to 10	> 100	CNC(=O)c1cnc(Nc2ccc(N3CCN(c4cccc5c4n(C)c(=O)n5C4CCC(=O)NC4=O)CC3)cn2)cc1Nc1cccc(-c2ncc(F)cn2)c1OC (stereo not drawn) [Example K702]
> 100	< 1	> 100	CNC(=O)c1cnc(Nc2ccc(C3CN(Cc4cccc5c4n(C)c(=O)n5C4CCC(=O)NC4=O)C3)cn2)cc1Nc1cccc(-c2ncc(F)cn2)c1OC (stereo not drawn) [Example K703]
< 1	< 1	> 100	CNC(=O)c1cnc(Nc2ccc(CN(C)C3CCN(c4cccc5c4n(C)c(=O)n5C4CCC(=O)NC4=O)CC3)cn2)cc1Nc1cccc(-c2ncc(F)cn2)c1OC (stereo not drawn) [Example K704]
